Results as given in ChEMBL document CHEMBL1201862, “PubChem BioAssay data set” (2004).
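Briefly, cells in 96-well plates were exposed to five compound concentrations for 48 h, and endpoints were estimated by linear interpolation. GI50 is the concentration that inhibits growth by half.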 The source made the active and inactive calls. Rule as the data show it: active = GI50 up to about 1.1 µM and inactive = higher.

Tests used:
Assay in all cases: NCI-60 cell line screen, 48 h
[1] = test system: 786-0
[2] = test system: A498
[3] = test system: A549
[4] = test system: ACHN
[5] = test system: CAKI-1
[6] = test system: EKVX
[7] = test system: HOP-92
[8] = test system: LOX IMVI
[9] = test system: MDA-MB-231
[10] = test system: MDA-N
[11] = test system: NCI-H522
[12] = test system: NCI/ADR-RES
[13] = test system: OVCAR-3
[14] = test system: RPMI-8226
[15] = test system: RXF 393
[16] = test system: SK-MEL-5
[17] = test system: SK-OV-3
[18] = test system: SNB-19
[19] = test system: U-251
[20] = test system: UACC-257

CC(C)=NNc1ncnc2[nH]cnc12
GI50 [1]: 5.83 µM (inactive)
GI50 [2]: 5.07 µM (inactive)
GI50 [3]: 4.89 µM (inactive)
GI50 [4]: 5.7 µM (inactive)
GI50 [5]: 3.66 µM (inactive)
GI50 [6]: 12.9 µM (inactive)
GI50 [7]: 16.9 µM (inactive)
GI50 [8]: 4.78 µM (inactive)
GI50 [9]: 6.95 µM (inactive)
GI50 [10]: 8.79 µM (inactive)
GI50 [11]: 2.86 µM (inactive)
GI50 [12]: 5.01 µM (inactive)
GI50 [13]: 5.78 µM (inactive)
GI50 [14]: 4.83 µM (inactive)
GI50 [15]: 6.87 µM (inactive)
GI50 [16]: 14.5 µM (inactive)
GI50 [17]: 3.88 µM (inactive)
GI50 [18]: 45.5 µM (inactive)
GI50 [19]: 20.4 µM (inactive)
GI50 [20]: 10 µM (inactive)

O=C1C=CC(=O)[C@H]2C3C=CC(C4C3C3(Cl)C(Cl)=C(Cl)[C@]4(Cl)C3(Cl)Cl)[C@@H]12 (stereo not given in full)
GI50 [1]: 5.94 µM (inactive)
GI50 [2]: 16 µM (inactive)
GI50 [3]: 4.03 µM (inactive)
GI50 [4]: 8.55 µM (inactive)
GI50 [5]: 11.5 µM (inactive)
GI50 [6]: 4.02 µM (inactive)
GI50 [7]: 2.18 µM (inactive)
GI50 [8]: 3.32 µM (inactive)
GI50 [9]: 4.45 µM (inactive)
GI50 [10]: 4.52 µM (inactive)
GI50 [11]: 11 µM (inactive)
GI50 [12]: 5.83 µM (inactive)
GI50 [13]: 2.95 µM (inactive)
GI50 [14]: 3.3 µM (inactive)
GI50 [15]: 4.17 µM (inactive)
GI50 [16]: 3.55 µM (inactive)
GI50 [17]: 14.2 µM (inactive)
GI50 [18]: 5.62 µM (inactive)
GI50 [19]: 3.46 µM (inactive)
GI50 [20]: 2.32 µM (inactive)

COC(=O)[C@]12CC[C@H]3CN(C(=O)OCc4ccccc4)[C@H]([C@H]31)[C@H](C(=O)OCC[Si](C)(C)C)N2S(=O)(=O)c1ccc(C)cc1
GI50 [1]: > 100 µM (inactive)
GI50 [2]: 16.7 µM (inactive)
GI50 [3]: 18.4 µM (inactive)
GI50 [4]: 54.7 µM (inactive)
GI50 [5]: > 100 µM (inactive)
GI50 [6]: 89.9 µM (inactive)
GI50 [7]: 3.13 µM (inactive)
GI50 [8]: 94.4 µM (inactive)
GI50 [9]: 8.13 µM (inactive)
GI50 [10]: 74 µM (inactive)
GI50 [11]: > 100 µM (inactive)
GI50 [12]: > 100 µM (inactive)
GI50 [13]: > 100 µM (inactive)
GI50 [14]: 8.45 µM (inactive)
GI50 [15]: 4.74 µM (inactive)
GI50 [16]: 12.2 µM (inactive)
GI50 [17]: > 100 µM (inactive)
GI50 [18]: > 100 µM (inactive)
GI50 [19]: > 100 µM (inactive)
GI50 [20]: 20 µM (inactive)

CC(=O)Nc1ccc(/C=C/[N+](=O)[O-])cc1
GI50 [1]: 2.61 µM (inactive)
GI50 [2]: 5.19 µM (inactive)
GI50 [3]: 4.47 µM (inactive)
GI50 [4]: 3.42 µM (inactive)
GI50 [5]: 0.573 µM (active)
GI50 [6]: 3.13 µM (inactive)
GI50 [7]: 4.14 µM (inactive)
GI50 [8]: 1.71 µM (inactive)
GI50 [9]: 1.81 µM (inactive)
GI50 [10]: 2.24 µM (inactive)
GI50 [11]: 0.24 µM (active)
GI50 [12]: 8.09 µM (inactive)
GI50 [13]: 2.98 µM (inactive)
GI50 [14]: 1.66 µM (inactive)
GI50 [15]: 2.07 µM (inactive)
GI50 [16]: 2.36 µM (inactive)
GI50 [17]: 8.93 µM (inactive)
GI50 [18]: 7.19 µM (inactive)
GI50 [19]: 3.15 µM (inactive)
GI50 [20]: 5.21 µM (inactive)
